Consider 2 substances from US20160074291A1, “ANTI-AGING SKIN CARE COMPOSITIONS AND REGIMENS” (The Procter & Gamble Company, priority 2014, published 2016).

The test system of assay [1] is skin barrier formation. Nature of the assay: Eigengene analysis of younger-appearance genes, skin barrier. The format is cell-based. The settings on record: cultured human keratinocytes.
The subject of assay [2] is "Clear and Detox" module genes. Nature of the assay: Eigengene analysis of "Clear and Detox" co-expression module. The settings on record: FIG. 8.
For assay [3], the system named is "Repair and Rebuild" associated genes. Put plainly: Eigengene analysis of "Repair and Rebuild" co-expression module. The settings on record: 301 genes, FIG. 9.

For the substance palmitoyl-lysine-threonine [Pal-KT], the “effects relating to successful aging in skin barrier formation” value in assay [1] is given as “Effects relating to successful aging were also identified”. Also, the “effect on "Clear and Detox" eigengene” value in assay [2] is “significantly up-regulates”.
Regarding “palmitoyl-lysine-threonine-threonine-lysine-serine [Pal-KTTKS]”, the “effect on "Repair and Rebuild" eigengene” value in assay [3] is listed as “significantly up-regulate”.
